Assay [1] has as its target T1, VEGF (Homo sapiens, UniProt P15692).
T1 sequence (P15692 27-191 isoform P15692-4): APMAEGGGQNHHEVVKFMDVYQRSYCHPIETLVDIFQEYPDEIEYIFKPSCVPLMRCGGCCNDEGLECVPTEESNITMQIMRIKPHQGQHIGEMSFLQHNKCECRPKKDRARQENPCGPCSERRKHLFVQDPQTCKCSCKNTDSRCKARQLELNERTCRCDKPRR
Kind of assay: SPR based solution affinity assay, growth factor binding (VEGF). The settings on record: heparin-coated sensorchip, HBS-EP buffer, 25° C. The method, then: (§1) Binding affinities of ligands for the growth factors FGF-1, FGF-2 and VEGF were measured using a surface plasmon resonance (SPR) based solution affinity assay. The principle of the assay is that heparin immobilised on a sensorchip surface distinguishes between free and bound growth factor in an equilibrated solution of the growth factor and a ligand. Upon injection of the solution, the free growth factor binds to the immobilised heparin, is detected as an increase in the SPR response and its concentration thus determined. A decrease in the free growth factor concentration as a function of the ligand concentration allows for the calculation of the dissociation constant, Kd. It is important to note that ligand binding to the growth factors can only be detected when the interaction involves the HS binding site, thus eliminating the chance of evaluating non-specific binding to other sites on the protein. A 1:1 stoichiometry has been assumed for all protein:ligand interactions.
(§2) For the testing of growth factor binding activity, heparin-coated sensorchips were used. Their preparation, via immobilisation of biotinylated BSA-heparin on a streptavidin-coated sensorchip, has been described.[5] Heparin has also been immobilised via aldehyde coupling using either adipic acid dihydrazide or 1,4-diaminobutane. […] Ligands binding to FGF-1 and VEGF were measured in HBS-EP buffer (10 mM HEPES, pH 7.4, 150 mM NaCl, 3.0 mM EDTA and 0.005% (v/v) polysorbate 20), while binding to FGF-2 was measured in HBS-EP buffer containing 0.3 M NaCl.[5] […] For each assay mixture, 50-200 μL of solution was injected at 5-40 μL/min and the relative binding response measured. […]
(§3) Sensorgram data were analysed using the BIAevaluation software (BIAcore). […]
(§4) [formula] and the binding equation[5] can be expressed as
(§5) The Kd values given are the values fit, using the binding equation, to a plot of [P] versus [L]total. Where Kd values were measured in duplicate, the values represent the average of the duplicate measurements. […]

For assay [2], the system named is herpes simplex virus (HSV-1) KOS321 strain. Kind of assay: Antiviral assay, HSV-1 infectivity (plaque forming units). Format: cell-based. The settings on record: African green monkey kidney cells; virus pre-incubated with compound 10 min. An excerpt:
(§6) In panel A, the results are expressed as a percentage of the number of viral plaque forming units (PFU) formed in cells infected with the compound-treated virions relative to mock-treated controls. In panel B, the results are expressed as a percentage of the average area of 20 viral plaques formed in the continuous presence of compound relative to mock-treated control cells. Monolayer cultures of African green monkey kidney cells[35] and herpes simplex virus (HSV-1) KOS321 strain[36] were used throughout. The antiviral assays on the compounds were performed as described by Nyberg et al.[13] Briefly, the effects of the compounds on the infection of cells by exogenously added virus were tested by mixing serial fivefold dilutions of compound (at 0.032-20 μM) with approximately 200 plaque forming units of the virus. Following incubation of the virus and compound for 10 min at room temperature, the mixture was added to the cells and left on the cell monolayer for 2 h at 37° C. Subsequently, the inoculum was aspirated and replaced with an overlay medium of 1% methylcellulose solution in Eagle's minimum essential medium (EMEM). The viral plaques that developed after incubation of cells for 3 days at 37° C. were stained with 1% crystal violet solution and counted. The effects of the compounds on cell-to-cell spread of HSV-1 were tested by adding serial fivefold dilutions of compound (at 0.032-20 μM) in the serum-free overlay medium to cells after their infection with HSV-1. After incubation of the compound with the cells for 3 days at 37° C., the images of 20 plaques were captured and subjected to area determination using IM500 software (Leica).

Assay [3] shares this test system. The experiment in a line: Antiviral assay, HSV-1 cell-to-cell spread (plaque area). Format: cell-based. The settings on record: African green monkey kidney cells; compound in overlay medium after infection, 3 days.
From the text: as §6

Assay [4] has as its target FGF-2 (Homo sapiens, UniProt P09038). Kind of assay: SPR based solution affinity assay, growth factor binding (FGF-2). As to conditions: heparin-coated sensorchip, HBS-EP buffer containing 0.3 M NaCl, 25° C.; read-out: Kd bFGF. The method, then:
as §1, §2, §3, §4, §5

This is an account of results in US8173606B2, “Sulfated oligosaccharide derivatives” (Progen Pharmaceuticals Limited, priority 2004, dated 2012).

Sequence of FGF-2 (P09038 143-288, species assumed): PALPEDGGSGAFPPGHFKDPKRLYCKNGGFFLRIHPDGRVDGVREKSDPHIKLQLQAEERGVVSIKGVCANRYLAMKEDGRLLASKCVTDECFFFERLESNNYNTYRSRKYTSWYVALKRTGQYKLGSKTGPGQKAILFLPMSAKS

Take Benzyl Glycoside Polysulfate [PG500]: the Kd in assay [1] stood at 1.72 ± 0.19 nM; in assay [4], 86 ± 7 nM. Moreover, the IC50 in assay [2] stood at 2000 nM; in assay [3], 1000 nM.

As to Octyl Glycoside Polysulfate [PG501], the Kd in assay [1] amounted to 1.67 ± 0.11 nM; in assay [4], 68.3 ± 2.9 nM. For the same substance, the IC50 in assay [2] stood at 1000 nM; in assay [3], 400 nM.
